Laboratory results taken from article PMC9103625, “The Role of the Nucleotides in the Insertion of the bis-Molybdopterin Guanine Dinucleotide Cofactor into apo-Molybdoenzymes” (Molecules, 2022).

How the values were obtained:
MobA = target: T1, MobA (Escherichia coli, UniProt P32173); experiment: conversion to bis-MGD, HPLC of FormA-GMP; assay type: biochemical; details: 3 µM MobA, 1 mM GTP, 1 mM MgCl2, 5 min, room temperature, bis-Mo-MPT from 30 µM YdhV
T1 construct: from plasmid pCT800A, Ni-NTA and size exclusion purified; monomer
T1 sequence (P32173 1-194): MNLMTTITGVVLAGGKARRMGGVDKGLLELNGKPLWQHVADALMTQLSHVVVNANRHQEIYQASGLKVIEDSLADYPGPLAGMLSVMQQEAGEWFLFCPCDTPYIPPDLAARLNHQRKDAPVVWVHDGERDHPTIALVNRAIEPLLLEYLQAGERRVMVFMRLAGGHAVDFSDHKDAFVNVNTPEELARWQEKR

apo-TorA = target: T2, apo-TorA (Escherichia coli, UniProt P33225); experiment: in vitro reconstitution, gel filtration, HPLC of FormA-GMP; assay type: binding; details: 1.3 µM apo-TorA, bis-MGD extracted from wtTorA, saturation at 25 µM donor, 7 h, 37 °C, pH 7.2, anaerobic
T2 construct: from plasmid pJF119EH, Ni-NTA and size exclusion purified; cofactor-free apo-enzyme reconstituted in vitro
T2 sequence (P33225 40-848): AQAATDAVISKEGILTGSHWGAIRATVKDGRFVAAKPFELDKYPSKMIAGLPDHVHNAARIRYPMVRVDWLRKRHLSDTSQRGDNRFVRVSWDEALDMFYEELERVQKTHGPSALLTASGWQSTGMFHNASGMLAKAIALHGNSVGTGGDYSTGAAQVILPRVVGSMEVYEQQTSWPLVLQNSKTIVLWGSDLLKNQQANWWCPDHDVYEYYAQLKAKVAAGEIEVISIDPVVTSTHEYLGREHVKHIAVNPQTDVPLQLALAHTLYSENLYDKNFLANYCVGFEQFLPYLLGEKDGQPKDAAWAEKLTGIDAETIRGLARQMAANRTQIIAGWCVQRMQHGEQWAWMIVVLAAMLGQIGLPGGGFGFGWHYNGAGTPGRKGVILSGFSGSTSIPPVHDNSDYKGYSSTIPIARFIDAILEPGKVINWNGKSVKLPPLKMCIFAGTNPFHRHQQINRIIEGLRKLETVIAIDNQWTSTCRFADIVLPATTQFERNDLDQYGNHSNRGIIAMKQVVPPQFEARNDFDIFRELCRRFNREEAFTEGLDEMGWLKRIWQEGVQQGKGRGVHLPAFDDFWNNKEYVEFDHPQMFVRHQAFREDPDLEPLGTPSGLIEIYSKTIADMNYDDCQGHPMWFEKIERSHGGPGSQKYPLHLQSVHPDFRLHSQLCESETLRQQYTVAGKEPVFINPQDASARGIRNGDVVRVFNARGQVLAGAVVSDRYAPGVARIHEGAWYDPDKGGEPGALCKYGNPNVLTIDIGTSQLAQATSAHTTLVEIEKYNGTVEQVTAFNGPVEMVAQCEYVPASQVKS

apo-YdhV = target: T3, apo-YdhV (Escherichia coli, UniProt P76192); experiment: in vitro reconstitution, gel filtration, HPLC of dephospho-FormA; assay type: binding; details: 1.3 µM apo-YdhV, 7 h, 37 °C, pH 7.2, anaerobic, cofactor from alkaline phosphatase treatment
T3 construct: from plasmid SR153, expressed in E. coli RK5200, Ni-NTA and size exclusion purified; cofactor-free apo-protein
T3 sequence (P76192 1-700): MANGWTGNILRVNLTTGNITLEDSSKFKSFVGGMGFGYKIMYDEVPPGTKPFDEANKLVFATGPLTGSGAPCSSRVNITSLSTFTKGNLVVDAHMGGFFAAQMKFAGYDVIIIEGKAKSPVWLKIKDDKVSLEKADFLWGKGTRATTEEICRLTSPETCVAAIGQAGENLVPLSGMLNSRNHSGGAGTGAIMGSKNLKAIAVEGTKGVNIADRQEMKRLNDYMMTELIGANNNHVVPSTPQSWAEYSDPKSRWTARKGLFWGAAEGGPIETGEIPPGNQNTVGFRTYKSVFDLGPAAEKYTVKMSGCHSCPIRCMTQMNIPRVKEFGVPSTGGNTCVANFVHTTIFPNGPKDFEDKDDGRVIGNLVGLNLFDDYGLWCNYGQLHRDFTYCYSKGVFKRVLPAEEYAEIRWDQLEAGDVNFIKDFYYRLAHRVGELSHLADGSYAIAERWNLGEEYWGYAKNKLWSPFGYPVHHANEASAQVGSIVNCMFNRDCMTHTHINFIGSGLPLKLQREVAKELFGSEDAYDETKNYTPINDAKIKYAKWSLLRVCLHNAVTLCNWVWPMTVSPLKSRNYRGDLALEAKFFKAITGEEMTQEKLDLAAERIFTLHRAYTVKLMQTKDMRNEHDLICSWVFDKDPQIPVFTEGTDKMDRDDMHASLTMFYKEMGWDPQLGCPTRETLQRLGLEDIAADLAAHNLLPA

Nc1nc2c(ncn2[C@@H]2O[C@H](COP(=O)(O)OP(=O)(O)OP(=O)(O)O)[C@@H](O)[C@H]2O)c(=O)[nH]1 [GTP]
conversion to bis-MGD, HPLC of FormA-GMP (MobA): we converted bis-Mo-MPT into bis-MGD by the attachment of nucleotides using MobA and Mg-GTP

Nc1nc2c(c(=O)[nH]1)N[C@H]1C([S-])=C([S-])[C@@H](COP(=O)([O-])OP(=O)([O-])OC[C@H]3O[C@@H](n4cnc5c(=O)[nH]c(N)nc54)[C@H](O)[C@@H]3O)O[C@H]1N2.Nc1nc2c(c(=O)[nH]1)N[C@H]1C([S-])=C([S-])[C@@H](COP(=O)([O-])OP(=O)([O-])OC[C@H]3O[C@@H](n4cnc5c(=O)[nH]c(N)nc54)[C@H](O)[C@@H]3O)O[C@H]1N2.[O]=[Mo+4] [bis-MGD]
% bis-MGD saturation (maximum) (apo-TorA): 61.9%

dephospho-bis-Mo-MPT
% bound at 100 μM donor (apo-YdhV): 25.1%
